Test results published in patent publication US20190029257A1, “APPLICATION FOR HERBICIDE-TOLERANT PROTEIN” (BEIJING DABEINONG TECHNOLOGY GROUP CO., LTD., priority 2016, published 2019).

How the values were obtained:
Assay type in all cases: in vivo
[1] = test system: At chloroplastic ALT-2-01 T1 plants; test: Herbicide tolerance of Arabidopsis thaliana T1 plants (spray, resistance classes counted); conditions: 18 g ai/ha (1x Hal.); number of plants 14 days after spraying; Total 31
Description: T1 transformants were initially selected from the background of untransformed seeds using a glufosinate selection scheme. About 40000 T1 seeds were screened, and 380 T1 positive transformants (PAT gene) were identified with a transformation efficiency of about 0.95%. The plants that were transformed with the recombinant expression vector DBN100632 were Arabidopsis thaliana plants having an ALT-1-01 nucleotide sequence located in the cytoplasm introduced (At cytoplasmic ALT-1-01), and the plants that were transformed with the recombinant expression vector DBN100631 were Arabidopsis thaliana plants having an ALT-1-01 nucleotide sequence located in the chloroplast introduced (At chloroplastic ALT-1-01); the plants that were transformed with the recombinant expression vector DBN100634 were Arabidopsis thaliana plants having an ALT-2-01 nucleotide sequence located in the cytoplasm introduced (At cytoplasmic ALT-2-01), and the plants that were transformed with the recombinant expression vector DBN100633 were Arabidopsis thaliana plants having an ALT-2-01 nucleotide sequence located in the chloroplast introduced (At chloroplastic ALT-2-01); and the plants that were transformed with the recombinant expression vector DBN100636 were Arabidopsis thaliana plants having an ALT-3-01 nucleotide sequence located in the cytoplasm introduced (At cytoplasmic ALT-3-01), and the plants that were transformed with the recombinant expression vector DBN100635 were Arabidopsis thaliana plants having an ALT-3-01 nucleotide sequence located in the chloroplast introduced (At chloroplastic ALT-3-01). The herbicide tolerance effects of At cytoplasmic ALT-1-01 T1 plants, At chloroplastic ALT-1-01 T1 plants, At cytoplasmic ALT-2-01 T1 plants, At chloroplastic ALT-2-01 T1 plants, At cytoplasmic ALT-3-01 T1 plants, At chloroplastic ALT-3-01 T1 plants and wild-type Arabidopsis thaliana plants on halosulfuron-methyl were detected (14 days after sowing), respectively.
(§1) […] Plants were counted for the resistance situations 14 days after spraying: those having a consistent growth status with the blank solvent (water) group after 14 days were classified as highly resistant plants, those having a bolting height less than ½ of that of the blank solvent (water) group after 14 days were classified as moderately resistant plants, those still not capable of bolting after 14 days were classified as poorly resistant plants, and those dead after 14 days were classified as non-resistant plants. Since each Arabidopsis thaliana T1 plant was an independent transformation event, a significant difference in individual T1 responses could be expected at a given dose.
as §1, with “situation” for “situations”

[2] = test system: transgenic soybean plants (ALT-1, ALT-2 and ALT-3); test: Halosulfuron-methyl tolerance of soybean plants; conditions: 34 g ai/ha; summary of Table 3
Protocol: Gm cytoplasmic ALT-1-01 soybean plants, Gm chloroplastic ALT-1-01 soybean plants, Gm cytoplasmic ALT-2-01 soybean plants, Gm chloroplastic ALT-2-01 soybean plants, Gm cytoplasmic ALT-3-01 soybean plants, Gm chloroplastic ALT-3-01 soybean plants and wild-type soybean plants were respectively taken and sprayed with halosulfuron-methyl (34 g ai/ha, 1-fold field concentration) and a blank solvent (water). The damage degree caused by the herbicide was measured for each plant according to the leaf curl degree and the growth point damage degree 3 days after spraying (3 DAT), 7 days after spraying (7 DAT), 14 days after spraying (14 DAT) and 21 days after spraying (21 DAT), respectively: considering conditions of leaves being flat as the untreated plants and growth points being intact as having a damage degree of 0%; considering conditions of veins being locally browned, new leaves being malformed and plant growth being slow as having a damage degree of 50%; and considering conditions of veins being purple to whole plant being dead and growth points being browned and dry as having a damage degree of 100%. […]

[3] = test system: Gm chloroplastic ALT-3-01 soybean plants; test: Halosulfuron-methyl tolerance of soybean plants (damage degree); design: dose or concentration left out as unconfirmed; conditions: for Average damage % 3 DAT: 3 days after spraying; for Average damage % 7 DAT: 7 days after spraying; for Average damage % 14 DAT: 14 days after spraying; for Average damage % 21 DAT: 21 days after spraying
Description: The herbicide tolerance effects of Gm cytoplasmic ALT-1-01 soybean plants, Gm chloroplastic ALT-1-01 soybean plants, Gm cytoplasmic ALT-2-01 soybean plants, Gm chloroplastic ALT-2-01 soybean plants, Gm cytoplasmic ALT-3-01 soybean plants, Gm chloroplastic ALT-3-01 soybean plants and wild-type soybean plants on halosulfuron-methyl were detected (at seedling stage), respectively.
Gm cytoplasmic ALT-1-01 soybean plants, Gm chloroplastic ALT-1-01 soybean plants, Gm cytoplasmic ALT-2-01 soybean plants, Gm chloroplastic ALT-2-01 soybean plants, Gm cytoplasmic ALT-3-01 soybean plants, Gm chloroplastic ALT-3-01 soybean plants and wild-type soybean plants were respectively taken and sprayed with halosulfuron-methyl ([…]) and a blank solvent (water). The damage degree caused by the herbicide was measured for each plant according to the leaf curl degree and the growth point damage degree 3 days after spraying (3 DAT), 7 days after spraying (7 DAT), 14 days after spraying (14 DAT) and 21 days after spraying (21 DAT), respectively: considering conditions of leaves being flat as the untreated plants and growth points being intact as having a damage degree of 0%; considering conditions of veins being locally browned, new leaves being malformed and plant growth being slow as having a damage degree of 50%; and considering conditions of veins being purple to whole plant being dead and growth points being browned and dry as having a damage degree of 100%. There were 2 strains in Gm cytoplasmic ALT-1-01 soybean plants in total (S1 and S2), 2 strains in Gm chloroplastic ALT-1-01 soybean plants in total (S3 and S4), 2 strains in Gm cytoplasmic ALT-2-01 soybean plants in total (S5 and S6), 2 strains in Gm chloroplastic ALT-2-01 soybean plants in total (S7 and S8), 2 strains in Gm cytoplasmic ALT-3-01 soybean plants in total (S9 and S10), 2 strains in Gm chloroplastic ALT-3-01 soybean plants in total (S11 and S12), and 1 strain in wild-type soybean plants (CK1) in total; and 10-15 plants were selected from each strain and tested.

## COC(=O)c1c(Cl)nn(C)c1S(=O)(=O)NC(=O)Nc1nc(OC)cc(OC)n1 [halosulfuron-methyl, 3-chlorine-5-(4,6-dimethoxypyrimidine-2-aminocarbonylaminosulphonyl)-1-methylpyrazole-4-carboxylic acid methyl ester]
[1]
  Highly resistant: 1
  Moderately resistant: 4
  Non-resistant: 5
  Poorly resistant: 7
[2]
  tolerance of the plants to the herbicide: high level of halosulfuron-methyl herbicide tolerance
[3]; strain S11
  Average damage % 3 DAT: 10%
  Average damage % 7 DAT: 4%
  Average damage % 14 DAT: 0%
  Average damage % 21 DAT: 0%
[3]; strain S12
  Average damage % 3 DAT: 11%
  Average damage % 7 DAT: 5%
  Average damage % 14 DAT: 0%
  Average damage % 21 DAT: 0%
